# Results taken from patent US20060263340A1, “Treating gastrointestinal diseases with modulators of retinoic acid” (priority 2005, published 2006).
# Experiments:
# B cells = experiment: In vivo homing of B cells activated with anti-IgM antibody in the presence or absence of retinoic acid; design: species or system mouse
# Method: FIG. 16 illustrates the effect of retinoic acid (RA) in the homing potential of B cells activated with an anti IgM antibody. Mouse spleen B cells are activated with an anti-IgM antibody, either with or without RA, and in the presence of non-intestinal dendritic cells (D1-DC) to improve the effector B cell viability. After 4 days in culture, naïve, B220^+ and B220^Neg (plasmablasts) effector B cells are assayed for (A) α4β7 (MFI: mean fluorescence intensity). (B) CCR9, and (C-D) migration of B cells activated in the presence or the absence of RA. […] In addition, most of the cells localizing in the small bowel mucosa are B220^Low/Neg (plasmablasts). (D) Bar graphs showing the mean±SE of 2 independent experiments. The homing indices (HI) indicate how much more (or less) B cells activated in the presence of RA migrate with respect to those activated without RA in a given tissue (HI=1 means no difference). […]
# Dendritic cells treated with retinoic acid (RA) as described in FIGS. 3-6, or gut derived DC (e.g. mobilized from Peyer's patches or mesenteric lymph nodes), or RA itself (see FIG. 15) can be used to activate naive or effector/memory T and/or B cells. […] After 4-5 days, the resulting effector T and/or B cells are analyzed for their expression of gut or skin homing molecules and migratory behavior (see FIG. 16).
# T cells = experiment: In vivo migration of T cells activated with D1-DC pretreated with RA; conditions: T cells activated with D1-DC pretreated with RA for 3 days, injected into mice; average of two independent experiments (FIG. 19B)
compound,measurement,setting,value
"CC1=C(/C=C/C(C)=C/C=C/C(C)=C/C(=O)O)C(C)(C)CCC1 [RA, retinoic acid]",migration of B cells into the small bowel lamina propria as compared to those activated without RA (homing index),B cells; average of 2 independent experiments (FIG. 16D),more than 10 times
same,localization of B cells in the small bowel lamina propria as compared to B cells activated without RA,"B cells; mouse spleen B cells activated with anti-IgM with RA, in presence of D1-DC, representative homing experiment (FIG. 16C)",24 times
same,migration of T cells to the intestinal mucosa as compared to those activated with control D1-DC,T cells,200 times
